Reference: US5260275A, “Hypoglycemics” (Amylin Pharmaceuticals, Inc., priority 1990, dated 1993)
No end group written: not given here.

Columns and labels:
HIT T-15 cells [1] = assay: Insulin release from HIT T-15 cells; assay type: cell-based, hamster
Protocol: (§1) HIT T-15 cells (HIT cells; American Type Tissue Collection, Rockville, MD; R. F. Santerre, et al. (1981) Proc. Nat. Acad. Sci. USA 78, 4339-4343.) were subcultured weekly in Ham's F-12 medium (Irvine Scientific, Santa Ana, Calif.) containing 10% horse serum (Gemini Bioproducts, Calabasas, Calif.), 2.5% fetal bovine serum (FBS; Gemini), 2 mM L-glutamine, and 10.0 mM glucose. Cells were maintained at 37° C. and 5% CO2 / 95% humidified air and medium was replaced every 2 to 3 days. All experiments were performed with cells from passages 66 to 71.
(§2) Amylin and insulin secretion were measured using reagents of analytical grade unless otherwise indicated. The secretion medium was a Krebs-Ringer buffer (KRB) containing 119 mM NaCl, 4.74 mM KCl, 2,54 mM CaCl2, 1.19 mM MgSO4, 1.19 mM KH2 PO4, 25 mM NaHCO3, 10 mM HEPES and 0.1% protease-free bovine serum albumin (Cohn fraction V; Sigma Chemical Co., St. Louis Mo.) at pH 7.4. Glibenclamide (Sigma) was initially dissolved in ethanol (50 mg/ml) then diluted to working concentrations in KRB. […] Tolbutamide (Sigma) was initially dissolved in dimethylsulfoxide (50 mg/ml). […] Metformin (Sigma) was diluted in KRB.
(§3) Five days before each secretion study cells were subcultured at 0.26×10^6 cells/0.8 ml medium/well in 24-well tissue culture plates (Corning Glass Works, Corning N.Y.). Medium was replaced on day 3. On day 5 cells were washed twice with 1.0 ml KRB then incubated in 1.0 ml KRB (30 minutes, 37° C.) in equilibrium with air. Cells were washed twice more prior to addition of 0.5 ml KRB containing the indicated concentrations of glucose, metformin, tolbutamide and glibenclamide. After a 60 minute incubation with test substance or substances, supernatants were centrifuged (5 minutes, 500×g, 5° C.; GPKR centrifuge, Beckman Instruments, Inc., Palo Alto, Calif.) to remove cell debris, then stored in polypropylene micro test tubes (Brinkman Instrument Co., Westbury, N.Y.) at -20° C. until analyzed by radioimmunoassay. Supernatants were analyzed for insulin and amylin content within one week of collection. Three wells per plate were randomly selected for cell quantitation. Cells were incubated with 75 μg trypsin and 30 μg EDTA in 150 μl normal saline (8 minutes, 37° C.), then counted on a Coulter Counter (Model Zf, Coulter Electronics, Hialeah, Fla.).
(§4) Immunoreactive insulin content in supernatants was measured using a commercial radioimmunoassay (IM.78; Amersham, Arlington Heights, Ill.). […] The radioimmunoassay for immunoreactive amylin was as follows. Assay diluent was phosphate-buffered saline (PBS; 137 mM NaCl, 2.68 mM KCl, 1.47 mM KH2 PO4, 6.65 mM Na2 HPO4) containing 0.1% Triton-X 100 (v/v), 0.01% NaN3 (w/v), and 0.1% gelatin (v/v; teleostean, 45% aqueous solution, Sigma) at pH 7.4. All incubations were performed at 4° C. ^125 I-[Tyr 37]-human synthetic amylin tracer was iodinated by the chloramine-T method and purified on a C18 Sep-Pak (Waters Associates, Milford, Mass.). Specific activity was approximately 500 μCi/μg.
Data in FIGS. 3 and 4 are shown as the mean±S.D. of 4 replicate samples. An unpaired Student's t-test was used to compare secretion in the absence and presence of hypoglycemic agent (Statview 512+ program; Brain Power, Inc., Calabasas, Calif.).
as §1, with “Md.)” for “MD; R. F. Santerre, et al. (1981) Proc. Nat. Acad. Sci. USA 78, 4339-4343.)”, “L-glutamine, 10^5 IU penicillin G/1, 100 mg streptomycin/1” for “L-glutamine,”, “C02/” for “CO2 /”, “62” for “66”

HIT T-15 cells [2] = assay: Amylin release from HIT T-15 cells; assay type: cell-based, hamster; settings: for Effect on basal and glucose-stimulated amylin secretion (in words): same concentrations that stimulate insulin secretion (tolbutamide 100 μM; glibenclamide 0.1 and 1.0 μM), 0 and 10 mM glucose
Protocol: as §1, §2, §3, §4
Standards and unknowns were run in triplicate or duplicate respectively. After an 18 hour incubation, 100 μl of tracer containing 20,000 dpm was added and samples were incubated an additional 18 hours. To ensure complete immunoprecipitation of amylin:antibody complexes, 100 μl of rabbit gamma globulin (0.35 mg/ml, Scantibodies Laboratory, Santee, Calif.) and 100 μl of goat anti-rabbit gamma globulin (0.50 mg/ml, purified grade; Scantibodies) were added. After a 15 minute incubation, 1.0 ml 2% polyethylene glycol (w/v. MW 8,000; Sigma) in assay buffer was added and samples were centrifuged (30 minutes, 1500×g, 5° C.). Samples were decanted and pellets were counted on a gamma counter (model 1277; LKB Wallac, Turku, Finland).
Data in FIGS. 3 and 4 are shown as the mean±S.D. of 4 replicate samples.

[3] = system: amylin inhibition of insulin-stimulated muscle glycogen synthesis; assay: Antagonist assay in isolated rat soleus muscle (radiolabelled glucose into glycogen, Example 6); assay type: cell-based; settings: 1000 μU/mL insulin
Protocol: An antagonist assay was performed in vitro using the isolated soleus muscle from rats. It measured the rate of incorporation of radiolabelled glucose into muscle glycogen as follows: […] There were therefore 9 treatment groups (conditions 1,2,3 and six subgroups of condition 4). The right and left soleus muscles of 4-hour fasted rats were removed immediately after decapitation of the animals, divided in half and temporarily placed in physiological saline. Muscles were assigned to different treatment groups so that the 4 muscle pieces from each animal were evenly distributed among the 9 flasks representing the different assay conditions. […] Pharmacologically active agents were added to the 10mL of medium to result in the above stated concentrations and mixtures. […] Frozen muscle specimens were digested in 1 mL 60% potassium hydroxide at 70° C. for 45 minutes. […] The supernatant was aspirated and the glycogen washed with ethanol, aspirated and dried under vacuum. The remaining glycogen was redissolved in water and scintillation fluid and counted for ^14 C. From a knowledge of the specific activity of ^14 C-glucose in the 5.5 mM glucose of the incubation medium, and the total ^14 C counts remaining in the glycogen extracted from each muscle, the net rate of glycogen synthesis over the final 60 minute incubation period was determined. This was normalized per mass of muscle and expressed as μmoles of glucosyl units incorporated into glycogen per hour per gram of muscle. The antagonist dose/response curve was fitted to a 4-parameter logistic model using a least-squares iterative routine (ALLFIT, v2.7, NIH, MD) to derive the EC50 for disinhibition.

[4] = system: isolated rat islets of Langerhans; assay: Glucose-stimulated insulin secretion from isolated rat islets of Langerhans; assay type: cell-based; settings: glucose 10 mmol/L
Protocol: The following experiments illustrate the fact that subpeptides of amylin can act to reduce the amount of insulin produced by isolated islets of Langerhans in response to a standard glucose challenge. Similar results have been obtained using whole amylin. All experiments were performed by known methods used in experimental practice. See, e.g., Lacey P. E., and Kostianovsky M., Method for the Isolation of Intact Islets of Lanaerhans from the Rat Pancreas. Diabetes 1967; 16:35-39.
Briefly, rats were killed, and islets of Langerhans were isolated from their pancreases. Experiments were performed either with freshly isolated islets or after overnight incubation of islets (23 h) in standard culture medium and conditions at 37° C. Synthetic amylin peptide 27-37 or synthetic calcitonin gene related peptide (CGRP) was dissolved in a 1.0 mmol/L citric acid/sodium citrate buffer, pH 3.0, and the concentration of the amylin 27-37 was verified by quantitative amino acid analysis. See, e.g., Cooper G. J. S. et al., Proc Natl Acad Sci USA 1987; 84:8628-8632. […] Stimulation of islets was carried out at the standard stimulatory glucose concentration of 10 mmol/L.
Production of insulin is expressed as μU/islet/h. All experiments were performed with five replicates per point. The integrity of the islet response was assessed by comparing the responses after stimulation of different aliquots of islets by two and ten mmol/L glucose, respectively, and the strength of the inhibitory response was judged against that induced by 1 μg/ml (650 nmol/L) somatostatin. Somatostatin is a 14 amino acid peptide which is a known, potent inhibitor of the insulin secretory response of islet B-cells to glucose. Arimura A. Biomed res1981; 2:233-257. […] Petterson M., Ahren B., Bottcher G., Sundler F., Endocrinology 1986; 119:865-869.
The results are shown in TABLE 5 below and all results are expressed as standard error of the mean (s.e.m.). The significance of differences between the means of groups is assessed by the t-test. The result of stimulation by 10 mmol/L glucose is compared with the results of stimulation at 2 mmol/L glucose. In all other experimental conditions, the significance of the inhibitory effect is measured against the effect of 10 mmol/L glucose alone.

[5] = Intravenous amylin bolus in normal rats; assay type: in vivo, rat
Protocol: We have also shown that amylin acutely produces diabetes (fasting hyperglycemia greater than 140 mg/dL) when administered intravenously. Eight normal rats were injected with a 100 μg bolus of amylin (rat amylin, Bachem, Torrance, Calif.). An intravenous amylin bolus produced a profound hyperglycemia to diabetic levels within 15-30 minutes (usually around 200 mg/dL). This hyperglycemia persists for several hours. […] There is an increase in respiratory quotient (RQ) after amylin only when somatostatin is absent and insulin is allowed to increase in response to hyperglycemia. During somatostatin infusion (no endogenous insulin release), there is no change in RQ, indicating no change from lipid to carbohydrate fuel usage in response to amylin in the fasted animal.

[6] = 100 μg intravenous bolus, normal rats

## COc1ccc(Cl)cc1C(=O)NCCc1ccc(S(=O)(=O)NC(=O)NC2CCCCC2)cc1 [glibenclamide]
HIT T-15 cells [1]; 0 glucose
  Proportional increase of basal insulin release: more than two-fold
HIT T-15 cells [1]; 0.1 and 1.0 μM, 0 and 10 mM glucose, 60 min
  Effect on basal and glucose-stimulated secretion of insulin (in words): significantly enhanced
HIT T-15 cells [2]; basal conditions (0 glucose)
  Proportional increase in basal amylin secretion: approximately two-fold
HIT T-15 cells [2]
  Effect on basal and glucose-stimulated amylin secretion (in words): significantly increase

## CN(C)C(=N)N=C(N)N [metformin]
HIT T-15 cells [1]; 10 and 100 μM, 0 and 10 mM glucose, 60 min
  Effect on insulin secretion (in words): no measurable effect
HIT T-15 cells [2]; islet β-cells (HIT), concentration range examined
  Effect on rates of amylin secretion (in words): does not influence

## CCCCNC(=O)NS(=O)(=O)c1ccc(C)cc1 [tolbutamide]
HIT T-15 cells [1]; 100 μM, 0 and 10 mM glucose, 60 min
  Effect on basal and glucose-stimulated secretion of insulin (in words): significantly enhanced
HIT T-15 cells [2]
  Effect on basal and glucose-stimulated amylin secretion (in words): significantly increase

## CGRP8-37: 8-37 human CGRP (Bachem), amylin antagonist
[3]; 20 nM amylin
  Effect on amylin inhibition of insulin-stimulated muscle glycogen synthesis (in words): partly reverses
[3]; 20 nM amylin, antagonist 1 nM-10 μM
  Increment in the rate of glycogen synthesis, maximum reached: about 115 % of basal
[3]; 20 nM amylin, read-out: EC50 for disinhibition (half maximal concentration)
  EC50: 1.2 nM

## CGRP 27-37: subpeptide 27-37 of calcitonin gene related peptide (FVPTNVGSKAF; ends and bridges not checked; UniProt P06881 109-119, looked up, fragment)
[4]; substance 10 nmol/L
  Insulin production: 36 μU/islet/hr
  Relative insulin secretion inhibition (percentage by which insulin production is reduced from control): 55%
[4]; substance 100 nmol/L
  Insulin production: 36 μU/islet/hr
  Relative insulin secretion inhibition (percentage by which insulin production is reduced from control): 55%
[4]; substance 1000 nmol/L
  Insulin production: 46 μU/islet/hr
  Relative insulin secretion inhibition (percentage by which insulin production is reduced from control): 42%

## insulin: Humulin-R, 100U/mL, recombinant human insulin (Eli Lilly)
[3]; zero amylin, zero antagonist
  Increase in rate of glycogen synthesis: 3.7 fold

## rat amylin: rat amylin, Bachem, Torrance, Calif. (KCNTATCATQRLANFLVRSSNNLGPVLPPTNVGSNTY; ends and bridges not checked; cysteine pairing not given here; UniProt P12969 38-74, looked up)
[5]; [6]
  Duration of hyperglycemia: several hours
  Hepatic (endogenous) glucose output: increase
  Hyperglycemia level after bolus: around 200 mg/dL
  Peripheral glucose disposal: increased impediment
  Plasma lactate: transient increase
  Time to hyperglycemia at diabetic levels: 15 to 30 min
[5]; during somatostatin infusion (no endogenous insulin release)
  Respiratory quotient (RQ): no change
[5]; somatostatin absent, insulin allowed to increase
  Respiratory quotient (RQ): increase
[3]; 20 nM amylin
  Decrease of insulin-stimulated rate of glycogen synthesis: approximately 83%
